Laboratory results published in patent US12617818B2, “Compositions and methods for modulating myosin subfragment-2 coiled coil stability and methods for using them” (UNIVERSITY OF NORTH TEXAS, priority 2020, dated 2026).

Target: T1, smooth muscle myosin S2 peptide (MYH11) (Homo sapiens, UniProt P35749)
T1 construct: A 21 residue peptide of the S2 region of MYH11 was matched to the previously synthesized S2 peptide; host or cells: chemical synthesis
Assay: FRET of smooth muscle myosin S2 peptide dimer with anti-S2 peptides
Type: binding
Settings: Smooth peptide with Stabilizer
Description: Human smooth muscle myosin heavy chain (MYH11) is a part of the non-striated muscle. This gene can be found within esophagus, endometrium, duodenum, etc. A 21 residue peptide of the S2 region of MYH11 was matched to the previously synthesized S2 peptide of cardiac isoform and chemically synthesized 926-946. Generated amino acid sequence used is as follow: • Smooth: NH2-[…]—COOH (SEQ ID NO:11)
Resonance energy probes (donor and acceptor) were covalently attached to synthetic myosin S2 peptides of cardiac muscle, E930del cardiac muscle, E924K cardiac muscle, smooth muscle, and skeletal muscle (Aboonasrshiraz, N., 2020).
Acceptor probe was conjugated to muscle myosin S2 peptides at N-terminus. Muscle myosin S2 peptides were dissolved in 20 mM HEPES buffer at pH 8.0. And FITC was dissolved in few drops of N, N dimethyl formamide. Lastly, FITC and muscle myosin S2 peptide was reacted together in 1 to 1 molar ratio and was let to react for 120 minutes at room temperature. […]
In FRET assay, Fluorescein Isothiocyanate (FITC) functioned as fluorescent acceptor probe and Terbium Diethylene Triamine Pentaacetic Acid-Cytosine (Lanthanide-DTPA-Cytosine) functioned as donor probe. […] Lifetime of donor probe was measured in milliseconds.
The specificity of peptides were later tested on the myosin S2 of the smooth muscle (MYH11). […] Calculated separation distance in presence of the stabilizer peptide was 3.34 nm.

T1 sequence (P35749 926-946): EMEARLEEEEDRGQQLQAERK

C[C@H](NC(=O)[C@H](CCCCN)NC(=O)[C@H](Cc1ccccc1)NC(=O)[C@H](CCCCN)NC(=O)[C@H](CCCCN)NC(=O)[C@H](CCCCN)NC(=O)[C@H](CCCCN)NC(=O)[C@H](CCCCN)NC(=O)[C@H](CCCCN)NC(=O)[C@H](CCCCN)NC(=O)[C@@H](N)CCCCN)C(=O)N[C@@H](CCCCN)C(=O)N[C@@H](CCCCN)C(=O)N[C@@H](CCCCN)C(=O)N[C@@H](CCCCN)C(=O)N[C@@H](CCCCN)C(=O)N[C@@H](CCCCN)C(=O)O [Stabilizer]
TD (donor lifetime without acceptor): 1.73E−03
